Entries after “also recorded” stand apart in the source; their conditions may differ.
Columns and labels:
[1] = test system: influenza A(H1N1)pdm09 virus isolates with NA-I223V + S247N; assay type: biochemical
[2] = test system: influenza A(H1N1)pdm09 virus isolates with NA-S247N; assay type: biochemical
[3] = test system: influenza A(H1N1)pdm09 virus isolates with NA-I223V; assay type: biochemical
[4] = test system: influenza A(H1N1)pdm09 virus isolates with NA-S247N; assay type: cell-based
[5] = test system: influenza A(H1N1)pdm09 virus isolates with NA-I223V; assay type: cell-based
[6] = test system: influenza A(H1N1)pdm09 virus isolates with NA-I223V + S247N; assay type: cell-based
[7] = read-out: NA inhibitors IC50, average ± SD

In the case of `CCOC(=O)C1=C[C@@H](OC(CC)CC)[C@H](NC(C)=O)[C@@H](N)C1` [Oseltamivir, oseltamivir], the “susceptibility to antiviral drugs” value [1] is reported as “reduced susceptibility”.

For `CCC(CC)[C@H](NC(C)=O)[C@@H]1[C@H](O)[C@@H](C(=O)O)C[C@H]1N=C(N)N` [Peramivir, peramivir], the “NA inhibitors IC50 fold change” value [2] was 0.19 ± 0.01 (3) fold, the IC50 [2, 7] was 0.19 nM and the “NA inhibitors IC50 fold change” value [1] was 0.29 ± 0.01 (4) fold. The IC50 [1, 7] was 0.29 nM, the “NA inhibitors IC50 fold change” value [3] was 0.08 ± 0.01 (1) fold and the IC50 [3, 7] was 0.08 nM.

For `O=C1c2c(O)c(=O)ccn2N([C@@H]2c3ccccc3SCc3c2ccc(F)c3F)[C@@H]2COCCN12` [baloxavir], the “susceptibility to baloxavir” value [4] was “susceptible”, the “susceptibility to baloxavir” value [5] was “susceptible” and the “susceptibility to baloxavir” value [6] was “retained susceptibility; also recorded: susceptible”.
